Assay results: ChEMBL document CHEMBL1155611, “Isolation and structure of the cytotoxin lyngbyabellin B and absolute configuration of lyngbyapeptin A from the marine cyanobacterium Lyngbya majuscula” (J Nat Prod, 2000)
In brackets after ≈: the same amount, converted by molar mass. Activity calls are given as the source filed them. The rule behind the calls is not given here.

What was measured:
LoVo = experiment: Cytotoxicity against human LoVo cells; type: functional, cell-based
KB = experiment: Cytotoxicity against human KB cells; type: functional, cell-based

CC[C@H](C)[C@@H](C(=O)N1CCC[C@H]1c1nccs1)N(C)C(=O)[C@H](CC(C)C)N(C)C(=O)[C@H](Cc1ccc(OC)cc1)N(C)C(=O)/C=C(\C)OC
Activity (LoVo): inactive | Activity (KB): inactive

CC(C)[C@@H]1NC(=O)CNC(=O)[C@@H]2CSC(=N2)[C@H](C(C)(C)O)OC(=O)C(C)(C)[C@H](CCCC(C)(Cl)Cl)OC(=O)c2csc1n2 [LYNGBYABELLIN B]
IC50 (LoVo): 0.83 µg/mL (≈ 1.22 µM) | IC50 (KB): 0.1 µg/mL (≈ 0.147 µM)
